Reference: patent US11472799B2, “Serine threonine kinase (AKT) degradation / disruption compounds and methods of use” (Icahn School of Medicine at Mount Sinai, priority 2018, dated 2022)

How the values were obtained:
AKT [1] = experiment: Time course Western blot of AKT degradation in BT474 cells; assay type: cell-based, human; details: for time point for the most significant AKT degradation: BT474 cells (FIGS. 2 and 5); for time-dependent reduction of AKT, p-AKT, P-PRAS40 (T246), and P-S6 (S240/244) protein levels: BT474 cells, 1 μM
Protocol: (§1) Cells were lysed in 2× sample buffer (125 mM Tris-HCl at pH 6.8, 10% βME, 2% SDS, 20% glycerol, 0.05% Bromophenol Blue, 8 M urea). Protein lysates were loaded into 4-12% Bis-Tris gels and resolved by electrophoresis. Samples were then blotted on PVDF membrane (Millipore IPVH00010) using the wet transfer technique (Invitrogen). Membranes were blocked in 5% milk-TBST for 1 hour, washed in TBST for 10 min, and incubated in primary antibody in 5% milk-TBST or 5% BSA-TBST at 4° C. for 16 h. Membranes were rinsed (3×6 min) in TBST and incubated in horseradish peroxidase-conjugated secondary antibodies in 5% milk-TBST for 1 hour and rinsed again in TBST (3×6 min). Membranes were visualized using the chemiluminescence system (Thermo 34080, 37075) on autoradiography film (Denville E3018). Primary Antibodies: R-actin (Sigma A5316), p-AKT (Ser473 CST-9721), total AKT (CST-9272), p-S6 (Ser240/244, CST-5364), p-PRAS40 (Thr246, CST-2997). Secondary Antibodies: Mouse (Thermo 31432), Rabbit (Thermo 31460).

AKT [2] = experiment: Western blot of AKT protein levels and downstream signaling in BT474 cells; assay type: cell-based, human
In short: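 Lysates were immunoblotted with chemiluminescent detection for p-AKT Ser473, total AKT, p-S6 Ser240/244 and p-PRAS40 Thr246, using actin as loading control.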

AKT [3] = experiment: Western blot of AKT protein levels in PC-3 cells; assay type: cell-based, human; details: for suppression of AKT protein level and AKT activity: 1 μM (FIGS. 11 and 12)
Protocol: PC-3, U87MG, HCC1143, MDA-MB-231, MDA-MB-468, BT474 and MCF-7 cell lines were purchased from ATCC. Cell lines were regularly tested in the lab for mycoplasma. All cells were cultured at 37° C. and 5% CO2. PC-3, U87MG, MDA-MB-231, MCF-7 and BT474 cells were cultured in 1×DMEM (Corning, 10-013-CV) with 10% fetal bovine serum (Atlanta Biologicals S11150) and 1× Penicillin/Streptomycin. HCC1143 cells were cultured in RPMI (Corning, 10-040-CV) medium with 10% fetal bovine serum (Atlanta Biologicals S11150) and 1× Penicillin/Streptomycin. Cells were split using 0.05% or 0.25% trypsin (Corning 25-051-Cl or 25-053-Cl, respectively) before they reached full confluence and media was changed every 3-4 days. Cells were treated with compounds individually at different concentrations for 24 hrs. Cells were treated with DMSO, VHL, or PML alone as controls.
as §1

AKT [4] = experiment: Western blot of AKT protein levels in MDA-MB-468 cells; assay type: cell-based; details: 0.3 μM, 1 μM, 3 μM, or 10 μM for 24 h
Protocol: as §1

AKT [5] = experiment: Western blot of AKT protein levels in U87MG cells; assay type: cell-based; details: 0.3 μM, 1 μM, 3 μM, or 10 μM for 24 h
Protocol: as §1

[6] = 0.3 μM, 1 μM, 3 μM, or 10 μM for 24 h (FIG. 4B)

Cc1ncsc1-c1ccc([C@H](C)NC(=O)[C@@H]2C[C@@H](O)CN2C(=O)[C@@H](NC(=O)CCCCCCCCCCNC(=O)CCNC[C@@H](C(=O)N2CCN(c3ncnc4c3[C@H](C)C[C@H]4O)CC2)c2ccc(Cl)cc2)C(C)(C)C)cc1 [XF042-162, (2S,4R)-1-((S)-2-(11-(3-(((S)-2-(4-chlorophenyl)-3-(4-((5R,7R)-7-hydroxy-5-methyl-6,7-dihydro-5H-cyclopenta[d]pyrimidin-4-yl)piperazin-1-yl)-3-oxopropyl)amino)propanamido)undecanamido)-3,3-dimethylbutanoyl)-4-hydroxy-N-((S)-1-(4-(4-methylthiazol-5-yl)phenyl)ethyl)pyrrolidine-2-carboxamide]
time point for the most significant AKT degradation (AKT [1]): 24 h
time-dependent reduction of AKT, p-AKT, P-PRAS40 (T246), and P-S6 (S240/244) protein levels (AKT [1]): time-dependently reduce

NC1(C(=O)N[C@@H](CCO)c2ccc(Cl)cc2)CCN(c2ncnc3[nH]ccc23)CC1 [AZD5363, 4-amino-N-[(1S)-1-(4-chlorophenyl)-3-hydroxypropyl]-1-(7H-pyrrolo[2,3-d]pyrimidin-4-yl)piperidine-4-carboxamide, reference compound]
AKT protein levels (AKT [2]; 1 μM, 5 μM, or 10 μM for 24 h): no effect
pAKT levels (AKT [2]; 1 μM, 5 μM, or 10 μM for 24 h): increased
AKT protein levels (AKT [2]; 0.01-1 μM for 24 h (FIG. 4A)): no effect
pAKT levels (AKT [2]; 0.01-1 μM for 24 h (FIG. 4A)): increased
AKT protein levels (AKT [3]; [6]): no effect
pAKT levels (AKT [3]; [6]): increased
AKT protein levels (AKT [4]): no effect
pAKT levels (AKT [4]): increased
AKT protein levels (AKT [5]): no effect
pAKT levels (AKT [5]): increased

Cc1ncsc1-c1ccc(CNC(=O)[C@@H]2C[C@@H](O)CN2C(=O)[C@@H](NC(=O)CCCCCCCCCCNC(=O)CCNC[C@@H](C(=O)N2CCN(c3ncnc4c3[C@H](C)C[C@H]4O)CC2)c2ccc(Cl)cc2)C(C)(C)C)cc1 [XF038-166A, (2S,4R)-1-((S)-2-(11-(3-(((S)-2-(4-chlorophenyl)-3-(4-((5R,7R)-7-hydroxy-5-methyl-6,7-dihydro-5H-cyclopenta[d]pyrimidin-4-yl)piperazin-1-yl)-3-oxopropyl)amino)propanamido)undecanamido)-3,3-dimethylbutanoyl)-4-hydroxy-N-(4-(4-methylthiazol-5-yl)benzyl)pyrrolidine-2-carboxamide]
suppression of AKT protein level and AKT activity (AKT [2]; Western blot (FIGS. 1, 3, 4)): effective in suppressing both AKT protein level and AKT activity
time point for the most significant AKT degradation (AKT [1]): 24 h
time-dependent reduction of AKT, p-AKT, P-PRAS40 (T246), and P-S6 (S240/244) protein levels (AKT [1]): time-dependently reduces

CCn1c(-c2nonc2N)nc2c(C#CC(C)(C)O)ncc(OCCCNCCCC(=O)NCCCCCCCCCCC(=O)N[C@H](C(=O)N3C[C@H](O)C[C@H]3C(=O)NCc3ccc(-c4scnc4C)cc3)C(C)(C)C)c21 [XF067-101, (2S,4R)-1-((S)-2-(11-(4-((3-((2-(4-amino-1,2,5-oxadiazol-3-yl)-1-ethyl-4-(3-hydroxy-3-methylbut-1-yn-1-yl)-1H-imidazo[4,5-c]pyridin-7-yl)oxy)propyl)amino)butanamido)undecanamido)-3,3-dimethylbutanoyl)-4-hydroxy-N-(4-(4-methylthiazol-5-yl)benzyl)pyrrolidine-2-carboxamide]
suppression of AKT protein level and AKT activity (AKT [3]): effective in suppressing AKT protein level and AKT activity

CCn1c(-c2nonc2N)nc2c(C#CC(C)(C)O)ncc(OCCCNCCCC(=O)NCCCCCCCC(=O)N[C@H](C(=O)N3C[C@H](O)C[C@H]3C(=O)NCc3ccc(-c4scnc4C)cc3)C(C)(C)C)c21 [XF067-98, (2S,4R)-1-((S)-2-(8-(4-((3-((2-(4-amino-1,2,5-oxadiazol-3-yl)-1-ethyl-4-(3-hydroxy-3-methylbut-1-yn-1-yl)-1H-imidazo[4,5-c]pyridin-7-yl)oxy)propyl)amino)butanamido)octanamido)-3,3-dimethylbutanoyl)-4-hydroxy-N-(4-(4-methylthiazol-5-yl)benzyl)pyrrolidine-2-carboxamide]
suppression of AKT protein level and AKT activity (AKT [3]): effective in suppressing AKT protein level and AKT activity
